pIC50: −log10 of the molar value.
Experiments:
[1] = Oral bioavailability in Wistar rat at 1 to 3 mg/kg administered via gavage using EtOH/PEG400/H2O 10/40/50 formulation by LC-MS/MS analysis; assay type: ADME, organism-based; settings: in vivo, dose 1-3 mg/kg
[2] = Apparent permeability in human Caco-2 cells measured after 2 hrs by HPLC analysis; assay type: ADME, cell-based
[3] = Protein binding in pooled human plasma assessed as unbound fraction incubated for 6 hrs by LC-MS/MS analysis based equilibrium dialysis method; assay type: ADME, cell-free
[4] = target: Prostaglandin D2 receptor (Homo sapiens, UniProt Q13258); experiment: Displacement of [3H]PGD2 from full-length recombinant human DP1 receptor expressed in Chem-1 cell membranes measured after 120 mins by scintillation counting method
[5] = target: Prostaglandin E2 receptor EP3 subtype (Homo sapiens, UniProt P43115); experiment: Displacement of [3H]prostaglandin E2 from full-length recombinant human EP3 receptor expressed in HEK293 cell membranes measured after 120 mins by scintillation counting method
[6] = target: Prostaglandin E2 receptor EP2 subtype (Homo sapiens, UniProt P43116); experiment: Displacement of [3H]prostaglandin E2 from full-length recombinant human EP2 receptor expressed in HEK293 cell membranes measured after 120 mins by scintillation counting method
[7] = target: Prostaglandin E2 receptor EP1 subtype (Homo sapiens, UniProt P34995); experiment: Displacement of [3H]prostaglandin E2 from full-length recombinant human EP1 receptor expressed in HEK293 cell membranes measured after 60 mins by scintillation counting method
[8] = target: Prostaglandin F2-alpha receptor (Rattus norvegicus, UniProt P43118); experiment: Antagonist activity at FPR in Wistar rat assessed as inhibition of PGF2alpha-induced uterus contraction; assay type: tissue-based
[9] = Maximum oral bioavailability in human hepatocytes based well stirred liver model at 1 uM measured after 2 to 90 mins by LC-MS/MS analysis; assay type: ADME, Hepatocyte; settings: time 2-90 min, read-out: Fmax
[10] = Maximum oral bioavailability in dog hepatocytes based well stirred liver model at 1 uM measured after 2 to 90 mins by LC-MS/MS analysis; assay type: ADME, Canis lupus familiaris, Hepatocyte; settings: time 2-90 min, read-out: Fmax
[11] = Clearance in Balb/c mouse at 1 mg/kg, iv administered as bolus dose or 3 mg/kg, po administered via gavage by LC-MS/MS analysis; assay type: ADME, organism-based; settings: in vivo
[12] = Terminal half life in Wistar rat at 1 mg/kg, iv administered as bolus dose by LC-MS/MS analysis; assay type: ADME, organism-based; settings: in vivo, read-out: beta t1/2 (converted)

Chain of Prostaglandin E2 receptor EP1 subtype (P34995 whole entry): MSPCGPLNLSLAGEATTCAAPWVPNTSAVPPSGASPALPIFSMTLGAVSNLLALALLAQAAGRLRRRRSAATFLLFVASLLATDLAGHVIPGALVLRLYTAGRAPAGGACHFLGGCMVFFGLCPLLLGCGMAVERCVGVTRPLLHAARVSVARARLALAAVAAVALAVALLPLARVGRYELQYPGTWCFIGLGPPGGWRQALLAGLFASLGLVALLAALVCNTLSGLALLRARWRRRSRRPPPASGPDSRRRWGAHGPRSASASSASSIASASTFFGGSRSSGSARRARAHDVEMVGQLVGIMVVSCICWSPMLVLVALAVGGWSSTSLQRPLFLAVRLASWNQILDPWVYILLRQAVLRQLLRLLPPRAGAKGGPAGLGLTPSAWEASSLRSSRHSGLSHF
Chain of Prostaglandin E2 receptor EP2 subtype (P43116 whole entry): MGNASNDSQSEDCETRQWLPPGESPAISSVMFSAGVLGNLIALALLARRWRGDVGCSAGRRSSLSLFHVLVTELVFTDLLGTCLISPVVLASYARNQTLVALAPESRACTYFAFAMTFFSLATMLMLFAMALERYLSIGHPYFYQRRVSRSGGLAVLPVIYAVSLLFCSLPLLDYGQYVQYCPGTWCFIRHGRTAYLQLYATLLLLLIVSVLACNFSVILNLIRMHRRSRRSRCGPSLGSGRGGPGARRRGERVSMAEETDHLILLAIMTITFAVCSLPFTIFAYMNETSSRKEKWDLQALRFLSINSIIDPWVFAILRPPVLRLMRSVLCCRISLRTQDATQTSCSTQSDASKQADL
Chain of Prostaglandin F2-alpha receptor (P43118 whole entry): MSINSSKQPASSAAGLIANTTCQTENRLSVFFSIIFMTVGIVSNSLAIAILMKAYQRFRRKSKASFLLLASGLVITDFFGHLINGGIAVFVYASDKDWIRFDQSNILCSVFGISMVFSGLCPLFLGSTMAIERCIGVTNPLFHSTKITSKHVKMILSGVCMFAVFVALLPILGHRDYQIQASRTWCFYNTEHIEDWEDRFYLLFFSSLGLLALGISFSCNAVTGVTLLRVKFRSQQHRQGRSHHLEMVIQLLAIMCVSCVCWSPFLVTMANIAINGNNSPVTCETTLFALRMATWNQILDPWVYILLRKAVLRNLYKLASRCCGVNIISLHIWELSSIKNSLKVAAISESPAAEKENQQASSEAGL
Chain of Prostaglandin E2 receptor EP3 subtype (P43115 whole entry): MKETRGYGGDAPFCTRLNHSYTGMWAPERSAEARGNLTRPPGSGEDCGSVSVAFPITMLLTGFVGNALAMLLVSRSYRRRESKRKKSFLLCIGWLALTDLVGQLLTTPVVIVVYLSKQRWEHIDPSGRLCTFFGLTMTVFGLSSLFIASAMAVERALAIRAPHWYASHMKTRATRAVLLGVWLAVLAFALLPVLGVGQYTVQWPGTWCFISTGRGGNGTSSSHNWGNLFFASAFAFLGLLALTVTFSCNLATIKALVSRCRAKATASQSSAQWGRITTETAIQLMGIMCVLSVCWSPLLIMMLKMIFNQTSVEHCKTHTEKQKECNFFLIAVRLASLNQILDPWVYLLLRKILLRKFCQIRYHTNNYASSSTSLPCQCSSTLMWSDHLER
Chain of Prostaglandin D2 receptor (Q13258 whole entry): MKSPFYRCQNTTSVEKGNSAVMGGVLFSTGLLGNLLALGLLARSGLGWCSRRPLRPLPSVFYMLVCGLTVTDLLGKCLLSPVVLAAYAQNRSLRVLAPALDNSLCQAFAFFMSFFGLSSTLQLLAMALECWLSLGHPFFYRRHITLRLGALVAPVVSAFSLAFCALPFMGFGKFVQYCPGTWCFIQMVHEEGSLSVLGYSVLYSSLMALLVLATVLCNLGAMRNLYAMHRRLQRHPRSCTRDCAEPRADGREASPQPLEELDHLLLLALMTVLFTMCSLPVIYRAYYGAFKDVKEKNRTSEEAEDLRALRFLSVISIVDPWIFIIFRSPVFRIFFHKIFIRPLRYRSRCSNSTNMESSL

In the case of `Cc1c(N2CCCC2)nc2ccc(Br)cc2c1C(=O)NC[C@H](CCC(=O)O)c1ccccc1Cl` [BAY-6672], the bioavailability [1] was 91%, the Papp at 2 h [2] was 267 nm/s and the fraction unbound at 6 h [3] was < 0.01. The pIC50 [4] was < 5.00, the pIC50 [5] was < 5.00 and the pIC50 [6] was < 5.00. For the same compound, the pIC50 [7] was < 5.00, the pIC50 [8] was 7.28 and the Fh at 1 µM [9] was 66%. For the same compound, the Fh at 1 µM [10] was 18%, the clearance [11] was 1.1 L/h/kg and the half-life [12] was 3.8 h.
